Measured values published in ChEMBL document CHEMBL4266016, “Synthesis, Racemic X-ray Crystallographic, and Permeability Studies of Bioactive Orbitides from Jatropha Species” (J Nat Prod, 2018).
Square brackets hold non-standard residues; d marks the D form. Peptide text beside a SMILES is read from it. NMeF = CN[C@@H](Cc1ccccc1)C(=O)O; NMeI = CC[C@H](C)[C@H](NC)C(=O)O; NMeL = CN[C@@H](CC(C)C)C(=O)O; NMeS = CN[C@@H](CO)C(=O)O; Sar = CNCC(=O)O

Key:
[1] = Apparent permeability of the compound at 50 uM after 5 hrs by PAMPA; type: ADME
[2] = Apparent permeability across human Caco2 cells at 50 uM after 90 mins by LC-MS analysis; type: ADME, cell-based; settings: caco-2, 1.5 h
[3] = system: Caco-2; experiment: Cytotoxicity against human Caco2 cells at 0.5 to 64 uM after 2 hrs by resazurin dye based fluorescence assay; type: cell-based; settings: caco-2, 2 h
[4] = Inhibition of porcine pepsin using EDANS-DABCYL as substrate pretreated for 5 mins followed by substrate addition measured for 5 mins by spectrophotometric method; set-up: species or system Sus scrofa

Row | Papp [1] | Papp [2] | IC50 [4] [nM] | Structure (SMILES) | Activity [3]
1 | Impermeable | Impermeable |  | CC[C@H](C)[C@@H]1NC(=O)[C@H]([C@@H](C)O)NC(=O)CNC(=O)CNC(=O)[C@H](Cc2ccccc2)NC(=O)CNC(=O)[C@H](Cc2ccccc2)NC(=O)[C@H]([C@@H](C)CC)NC1=O (cyclo(FGFGGTII)) | Non-Toxic
2 | Impermeable | Impermeable |  | CC[C@H](C)[C@@H]1NC(=O)[C@H]([C@@H](C)O)NC(=O)CN(C)C(=O)CNC(=O)[C@H](Cc2ccccc2)NC(=O)CNC(=O)[C@H](Cc2ccccc2)N(C)C(=O)[C@H]([C@@H](C)CC)NC1=O (cyclo(FG[Sar]TII[NMeF]G)) | 
3 | Impermeable | Impermeable |  | CC[C@H](C)[C@@H]1NC(=O)[C@H]([C@@H](C)O)NC(=O)CN(C)C(=O)CNC(=O)[C@H](Cc2ccccc2)NC(=O)CNC(=O)[C@H](Cc2ccccc2)N(C)C(=O)[C@H]([C@@H](C)CC)N(C)C1=O (cyclo(FG[Sar]TI[NMeI][NMeF]G)) | 
4 | Impermeable | Impermeable |  | CC[C@H](C)[C@@H]1NC(=O)[C@H]([C@@H](C)O)NC(=O)CN(C)C(=O)CN(C)C(=O)[C@H](Cc2ccccc2)NC(=O)CN(C)C(=O)[C@H](Cc2ccccc2)N(C)C(=O)[C@H]([C@@H](C)CC)NC1=O (cyclo(F[Sar][Sar]TII[NMeF][Sar])) | 
5 | Impermeable | Impermeable |  | CC[C@H](C)[C@@H]1NC(=O)CNC(=O)[C@H](CC(C)C)NC(=O)[C@H]([C@@H](C)CC)NC(=O)[C@H]([C@@H](C)CC)NC(=O)[C@H](CO)NC(=O)CNC(=O)[C@H](CC(C)C)NC1=O (cyclo(GILGSIIL)) | Non-Toxic
6 | Impermeable | Impermeable |  | CC[C@H](C)[C@@H]1NC(=O)CNC(=O)[C@H](CC(C)C)NC(=O)[C@H]([C@@H](C)CC)NC(=O)[C@H]([C@@H](C)CC)NC(=O)[C@H](CO)N(C)C(=O)CNC(=O)[C@H](CC(C)C)NC1=O (cyclo(GILG[NMeS]IIL)) | 
7 | Impermeable | Impermeable |  | CC[C@H](C)[C@@H]1NC(=O)CNC(=O)[C@H](CC(C)C)NC(=O)[C@H]([C@@H](C)CC)NC(=O)[C@H]([C@@H](C)CC)NC(=O)[C@H](CO)NC(=O)CN(C)C(=O)[C@H](CC(C)C)NC1=O (cyclo(GIL[Sar]SIIL)) | 
8 | Impermeable | Impermeable |  | CC[C@H](C)[C@@H]1NC(=O)CNC(=O)[C@H](CC(C)C)NC(=O)[C@H]([C@@H](C)CC)NC(=O)[C@H]([C@@H](C)CC)NC(=O)[C@H](CO)N(C)C(=O)CN(C)C(=O)[C@H](CC(C)C)NC1=O (cyclo(GIL[Sar][NMeS]IIL)) | 
9 | Impermeable | Impermeable | 900 | CC(C)C[C@@H]1NC(=O)CNC(=O)[C@@H]2CCCN2C(=O)CNC(=O)[C@H](Cc2c[nH]c3ccccc23)NC(=O)[C@H](CC(C)C)NC(=O)[C@H](CC(N)=O)NC(=O)[C@H](CC(C)C)NC1=O (cyclo(GLLNLWGP)) | Non-Toxic
10 | Permeable | Impermeable |  | CC[C@H](C)[C@@H]1NC(=O)[C@H]([C@@H](C)CC)N(C)C(=O)[C@H](CO)NC(=O)CN(C)C(=O)[C@H](CC(C)C)N(C)C(=O)[C@H]([C@@H](C)CC)NC(=O)CN(C)C(=O)[C@H](CC(C)C)NC1=O (cyclo(IL[Sar]I[NMeL][Sar]S[NMeI])) | 
